For data set [1], the system named is Caco-2 cells. The data set is described as follows: Cell growth inhibition (CellTiter-Glo), Caco-2 colorectal cells with wild-type Ras. Type of data set: cell-based, human. The note with it: Homo sapiens, Caco-2; growth inhibition, 384-well plates, Table 3; read-out: Caco-2 (WT Ras) IC50. For orientation: Cellular ATP, detected with luciferase, serves as a proxy for viable cell number.

For data set [2], the system named is SW-480 cells. The data set is described as follows: Cell growth inhibition (CellTiter-Glo), SW-480 colorectal cells with activated Ras. In kind it is cell-based, human. The note with it: for IC50: Homo sapiens, SW480, growth inhibition, 384-well plates, Table 3, read-out: SW-480 (Ras Activated IC50); for Selectivity Caco-2/SW-480: ratio IC50 Caco-2 (WT Ras) / IC50 SW-480 (Ras activated). The procedure:
(§1) This example illustrates cell growth assays employed in the present invention.
(§2) Normal rat kidney (NRK) and Ki-Ras transformed NRK cells (K-NRK) were obtained from ATCC, and were cultured according to supplier recommendations. CellTiter-Glo ATP cell growth assay reagents were obtained from Promega and used according to the manufacturer's protocol. Inhibitors of EGFR, Raf, and MEK were obtained from Selleck Chemicals. Cells were plated at a density of 5,000 cells per well in 96-well microplates or 1,250 cells per well in 384-well plates, and allowed to attach for at least 4 h. Test compounds were dissolved in dimethyl sulfoxide (DMSO), and this working stock was further diluted in growth medium for addition to cell cultures. Serial dilutions of the test compound were prepared in growth medium containing an equal amount of DMSO not exceeding 0.2% final concentration. Each compound concentration was tested in at least 3 separate samples per cell line. At the end of a 3-day treatment period, growth inhibition was analyzed using a bioluminescent assay of ATP concentration (Promega CellTiter-Glo) according to the manufacturer's protocol. Resulting luminescence was measured using the luminescence cartridge of the Molecular Devices Spectramax Paradigm microplate reader. Relative growth inhibition for each sample was determined by comparison with the values obtained for vehicle treated control samples. Growth inhibition values were plotted with the GraphPad Prism5 software using the 4-parameter logistic fit to obtain IC50 values, which corresponds to the growth inhibitory potency of the compound.
The growth inhibitory activity of the compounds was tested using the CellTiter-Glo assay. Cells were seeded in 384-well plates and allowed to attach, then ten-fold serial dilutions of compounds were tested. Each concentration was tested in at least 3 separate samples per cell line.
(§3) Cells were seeded in 384-well plates and allowed to attach. Ten-fold serial dilutions of compounds were tested. Each compound concentration was tested in at least 3 separate samples per cell line.

The subject of data set [3] is A549 lung cancer cells. The data set is described as follows: Cell growth inhibition (CellTiter-Glo ATP assay), A549 cells with mutant K-Ras. The settings on record: for IC50: Homo sapiens, A549, 72 h, growth inhibition, three days treatment, K-Ras mutant lung cancer cells, read-out: A549 (Ras-activated) IC50; for Selectivity HT-29/A549: ratio IC50 HT-29 (WT Ras) / IC50 A549 (Ras-activated). Type of data set: cell-based, human. The procedure: This example illustrates cell growth assays employed in the present invention. Cells used in such assays included A-549, HT-29, MDA-MB-231, Colo-205, Caco2, HCT-116, SW-480, and DLD-1 human cancer cells obtained from the American Type Culture Collection (ATCC).
as §2, with “Human tumor cells were cultured using standard methods in RPMI-1640 growth medium supplemented with 5% fetal bovine serum (FBS). Normal” for “Normal”
(§4) This example illustrates effects of exemplary compounds of the present invention on cancer cells having activated or mutated Ras compared to wild-type (WT) Ras. […] A549 lung cancer cells, which harbor a mutation in the K-Ras oncogene were treated for three days with the compounds.

For data set [4], the system named is HT-29 colon cancer cells. The experiment in a line: Cell growth inhibition (CellTiter-Glo ATP assay), HT-29 cells with wild-type Ras. Type of data set: cell-based, human. The note with it: Homo sapiens, HT-29; growth inhibition, colon cancer cells with wild-type Ras, Table 2; read-out: HT-29 (WT Ras) IC50. How it is done: as §1, §2, §4, §3
For data set [5], the system named is HCT-116 colon tumor cells. The experiment in a line: Cell growth inhibition (CellTiter-Glo), HCT-116 colon tumor cells expressing mutant Ras. Type of data set: cell-based, human. The settings on record: ratio IC50 HT-29 (WT Ras) / IC50 HCT-116 (mutant Ras), 5000 cells/well, 96-well plates. The procedure:
This example illustrates cell growth assays employed in the present invention. […] Normal rat kidney (NRK) and Ki-Ras transformed NRK cells (K-NRK) were obtained from ATCC, and were cultured according to supplier recommendations. CellTiter-Glo ATP cell growth assay reagents were obtained from Promega and used according to the manufacturer's protocol. Inhibitors of EGFR, Raf, and MEK were obtained from Selleck Chemicals. Cells were plated at a density of 5,000 cells per well in 96-well microplates or 1,250 cells per well in 384-well plates, and allowed to attach for at least 4 h. Test compounds were dissolved in dimethyl sulfoxide (DMSO), and this working stock was further diluted in growth medium for addition to cell cultures. Serial dilutions of the test compound were prepared in growth medium containing an equal amount of DMSO not exceeding 0.2% final concentration. Each compound concentration was tested in at least 3 separate samples per cell line. At the end of a 3-day treatment period, growth inhibition was analyzed using a bioluminescent assay of ATP concentration (Promega CellTiter-Glo) according to the manufacturer's protocol. Resulting luminescence was measured using the luminescence cartridge of the Molecular Devices Spectramax Paradigm microplate reader. Relative growth inhibition for each sample was determined by comparison with the values obtained for vehicle treated control samples. […] This example illustrates use of well-established human colon tumor cell lines with widely divergent Ras activation status to determine selectivity values for exemplary compounds of the present invention. […] Cells were plated at 5000 cells/well in 96-well plates, and viable cell numbers were measured using the Cell Titer Glo ATP luminescence assay (Promega). […] Cells were seeded in 384-well plates and allowed to attach. Ten-fold serial dilutions of compounds were tested. Each compound concentration was tested in at least 3 separate samples per cell line.

The subject of data set [6] is cells expressing oncogenic H-Ras. The settings on record: NIH probe report, cited from earlier work.
Data set [7] has as its system DLD-1 cells. The data set is described as follows: Cell growth inhibition (CellTiter-Glo), DLD-1 colorectal cells. Type of data set: cell-based, human. The settings on record: Homo sapiens, DLD-1; known Ras pathway inhibitors, 384-well plates, Table 4.

These results are taken from patent US9931315B2, “Method of selectively inhibiting Ras-mediated tumor growth in humans” (ADT PHARMACEUTICALS, INC., priority 2014, dated 2018).

With `COc1ccc2c(c1)C(CC(=O)NCc1ccco1)=C(C)/C2=C/c1cc(C)c(O)c(C)c1` [Compound 001, (Z)—N-(furan-2-ylmethyl)-2-(1-(4-hydroxy-3,5-dimethylbenzylidene)-5-methoxy-2-methyl-1H-inden-3-yl)acetamide], the IC50 stood at 1100 nM in data set [1], 435 nM in data set [2], 716 nM in data set [3] and 6280 nM in data set [4]. Also, the “Selectivity Caco-2/SW-480” value in data set [2] is 3. Further, in data set [3], the “Selectivity HT-29/A549” value is given as 9.
Consider `COc1ccc2c(c1)C(CC(=O)Nc1cccnc1)=C(C)/C2=C/c1cc(OC)c(O)c(OC)c1` [Compound 004, (Z)-2-(1-(4-hydroxy-3,5-dimethoxybenzylidene)-5-methoxy-2-methyl-1H-inden-3-yl)-N-(pyridin-3-yl)acetamide], for which the half-maximal inhibitory concentration (IC50) in data set [1] was 1600 nM; in data set [2], 877 nM; in data set [3], 79 nM; in data set [4] it was 916 nM. Further, in data set [2], the “Selectivity Caco-2/SW-480” value amounted to 2. Moreover, the “Selectivity HT-29/A549” value in data set [3] was determined as 12.
Take `COc1ccc2c(c1)C(CC(=O)NCc1ccco1)=C(C)/C2=C/c1cc(OC)c(O)c(OC)c1` [Compound 006, (Z)—N-(furan-2-ylmethyl)-2-(1-(4-hydroxy-3,5-dimethoxybenzylidene)-5-methoxy-2-methyl-1H-inden-3-yl)acetamide]: the IC50 in data set [1] was determined as 428 nM; in data set [2], 2.85 nM; in data set [3], 11 nM; in data set [4], 8130 nM. Moreover, the “Selectivity Caco-2/SW-480” value in data set [2] is recorded as 150. Further, the HT-29/HCT-116 selectivity values in data set [5] amounted to 43. The “Selectivity HT-29/A549” value in data set [3] was 739.
On to `COc1cc(/C=C2/C(C)=C(CC(=O)NCc3ccco3)c3cc(F)ccc32)cc(OC)c1O` [Compound 007, (Z)-2-(5-fluoro-1-(4-hydroxy-3,5-dimethoxybenzylidene)-2-methyl-1H-inden-3-yl)-N-(furan-2-ylmethyl)acetamide], for which the half-maximal inhibitory concentration (IC50) in data set [1] is 1.97 nM; in data set [2] it was 0.37 nM; in data set [3], 0.86 nM; in data set [4], 280 nM. The “Selectivity Caco-2/SW-480” value in data set [2] worked out at 5. Further, the HT-29/HCT-116 selectivity values in data set [5] was 92. Besides, the “Selectivity HT-29/A549” value in data set [3] came out at 326.
Consider `COc1cc2c(cc1OC)/C(=C\c1cc(OC)c(O)c(OC)c1)C(C)=C2CC(=O)NCc1ccco1` [Compound 008, (Z)—N-(furan-2-ylmethyl)-2-(1-(4-hydroxy-3,5-dimethoxybenzylidene)-5,6-dimethoxy-2-methyl-1H-inden-3-yl)acetamide], for which the 50% inhibitory concentration (IC50) in data set [1] amounted to 1330 nM; in data set [2], 139 nM; in data set [3] it was 167 nM; in data set [4] it was 1540 nM. In addition, the “Selectivity Caco-2/SW-480” value in data set [2] was found to be 10. The “Selectivity HT-29/A549” value in data set [3] stood at 9.
Regarding `COc1ccc2c(c1)C(CC(=O)NCc1cccnc1)=C(C)/C2=C/c1cc(OC)c(O)c(OC)c1` [Compound 009, (Z)-2-(1-(4-hydroxy-3,5-dimethoxybenzylidene)-5-methoxy-2-methyl-1H-inden-3-yl)-N-(pyridin-3-ylmethyl)acetamide], the half-inhibitory concentration (IC50) in data set [1] was determined as 2610 nM; in data set [2], 223 nM; in data set [3] it was 353 nM; in data set [4], 4830 nM. Besides, in data set [2], the “Selectivity Caco-2/SW-480” value was 12. Further, the “Selectivity HT-29/A549” value in data set [3] was determined as 14.
In the case of `COc1cc(/C=C2/C(C)=C(CC(=O)NCc3ccccn3)c3cc(F)ccc32)cc(OC)c1O` [Compound 010, (Z)-2-(5-fluoro-1-(4-hydroxy-3,5-dimethoxybenzylidene)-2-methyl-1H-inden-3-yl)-N-(pyridin-2-ylmethyl)acetamide], the IC50 in data set [1] stood at 33.8 nM; in data set [2], 2.1 nM; in data set [3] it was 170 nM; in data set [4] it was 712 nM. In data set [2], the “Selectivity Caco-2/SW-480” value worked out at 16. In data set [5], the HT-29/HCT-116 selectivity values was 141. Also, the “Selectivity HT-29/A549” value in data set [3] is listed as 4.
For the molecule `COc1cc(/C=C2/C(C)=C(CC(=O)NCc3cccnc3)c3cc(F)ccc32)cc(OC)c1O` [Compound 011, (Z)-2-(5-fluoro-1-(4-hydroxy-3,5-dimethoxybenzylidene)-2-methyl-1H-inden-3-yl)-N-(pyridin-3-ylmethyl)acetamide], the concentration for half-maximal inhibition (IC50) in data set [1] worked out at 47.6 nM; in data set [2] it was 21.3 nM; in data set [3], 15 nM; in data set [4], 2940 nM. In addition, the “Selectivity Caco-2/SW-480” value in data set [2] is recorded as 2. Moreover, the HT-29/HCT-116 selectivity values in data set [5] was 168. In data set [3], the “Selectivity HT-29/A549” value turned out to be 196.
Regarding `COc1cc(/C=C2/C(C)=C(CC(=O)Nc3ccccc3)c3cc(F)ccc32)cc(OC)c1O` [Compound 035, (Z)-2-(5-fluoro-1-(4-hydroxy-3,5-dimethoxybenzylidene)-2-methyl-1H-inden-3-yl)-N-phenylacetamide], the HT-29/HCT-116 selectivity values in data set [5] came out at 31.
For `Cc1onc(C(=O)N2CCN(C(c3ccc(Cl)cc3)c3ccc(Cl)cc3)CC2)c1[N+](=O)[O-]` [ML210], the “selectivity versus cells lacking oncogenic Ras” value in data set [6] was 4 fold. Moreover, in data set [6] (read-out: IC50, growth of cells expressing mutant Ras), the concentration for half-maximal inhibition (IC50) is 71 nM.
Molecule `Cn1cnc2c(F)c(Nc3ccc(Br)cc3Cl)c(C(=O)NOCCO)cc21` [Selumetinib] registered an IC50 in data set [7] of 20400 nM.

The term IC50 denotes the concentration needed to halve the response being measured.
